Test [1] deals with human fetal muscle-derived CD31- cells. As to the kind of experiment: UCP1 mRNA expression by quantitative RT-PCR in CD31- cells. Format: cell-based. Particulars: day 16 of differentiation; normalized with cyclophilin A; rosiglitazone 1 microM in MDM from day 0; BMP7 6 nM 2 days before day 0 then MDM. As to the method: UCP1 mRNA expression in human fetal muscle-derived CD31− cells at day 16 of differentiation were measured.
All the cells were grown for 3 days in proliferation medium (EGM2) and then (on day 0) placed for 16 days in adipogenic differentiation medium (Minimal Differentiation Medium, MDM). The “EGM2” cells were maintained in EGM2 medium all along. Rosiglitazone (1 microM) was added from day 0 and kept in the medium until the end of the study. BMP7 (6 nM) was added 2 days before day 0 and removed at day 0. Effects of differentiation medium (MDM vs. EGM2), rosiglitazone (MDM+rosi vs. MDM) and BPM7 (MDM+BMP7 vs. MDM) are shown as fold change (as compared to EGM2 cells) on UCP1 mRNA expression in human muscle-derived brown adipocyte progenitor cells (CD31-). […]
Quantitative real-time PCR was performed using ABI rapid thermal cycler system and a SYBR Green PCR master mix (Applied Biosystems, Foster City, Calif.), or an ABI 7300 Real-time PCR instrument, a TaqMan Gene Expression Master Mix (Applied Biosystems #4369016) and TaqMan Gene Expression Pre-formulated Assays for human uncoupling protein-1 (GenBank NM_021833) (Applied Biosystems Assay ID Hs01084772_m1, TaqMan Gene Expression Assay part #4351372) and for human peptidylprolyl isomerase A “cyclophilin A” (GenBank NM_021130) (Applied Biosystems Assay ID Hs99999904_m1, TaqMan® Gene Expression Assay part #4448485). […]

Test [2] deals with human fetal muscle CD34+ cells. As to the kind of experiment: UCP1 mRNA expression by quantitative RT-PCR in cultured fetal muscle CD34+ cells. Format: cell-based. Particulars: rosiglitazone 1 μM. The method, then: UCP1 mRNA expression in fetal muscle CD34+ cells could be modulated by drug treatment. Cell-permeating cAMP derivatives strongly stimulated (7 to 8-fold) UCP1 mRNA expression in both primary cultured and expanded cells. The effects of cAMP derivatives, 8-bromo-cAMP, 0.25 mM or (4-chlorophenylthio)-cAMP, 0.25 mM (cAMP) on UCP1 mRNA expression in CD34+ cells in primary culture (PC) or expanded up to passage 3 (P3) are shown in FIG. 3B. All the cells were grown for 4-6 days in EGM2 medium and then placed for 8-12 days in the adipogenic medium described under Materials and Methods. The results are means±s.e.m. of arbitrary values normalized using the corresponding cyclophilin A values. […]
Rosiglitazone, a PPARγ agonist, had no effect in primary culture cells but strongly stimulated (8-fold) UCP1 mRNA expression in expanded cells. The results are expressed as in FIG. 3B (**p<0.01, n=4-7). […]
Total cell RNA was prepared using the kit NucleoSpin® RNAII (Clontech, Palo Alto, Calif.), Extract-all solution (Eurobio, Courtaboeuf, France) or PureLink RNA Isolation Kit (Invitrogen #12183-016) and quantified by Biophotometry (Biophotometer, Eppendorf). […]
Arbitrary units were determined by normalizing target mRNA levels to cyclophilin mRNA levels (based on Cts), wherein the cyclophilin levels were first divided by 100,000 for ease of reference. […]

Test [3] relates to CD31- cells. Description: Quantification of UCP1 protein by fluorescence immunohistochemistry in CD31- cells. Format: cell-based, human. Particulars: rosiglitazone 1 μM in MDM from day 0, 15 days. From the text:
Using this method, UCP1 staining can be evaluated using automated high content imaging. GE Healthcare's InCell 1000 High Content Imager combines automated microscopy with high content image analysis software (InCell Developer Toolbox). The reference compound rosiglitazone was used to promote the differentiation of the CD31− cells and increase the expression of UCP1. Using a primary antibody that recognizes UCP1, Abcam ab23841, and a secondary antibody, Alexafluor 488 goat anti-rabbit antibody, we can quantify relative UCP1 levels per cell.
Referring to FIGS. 17A-17B, culturing and differentiation of CD31− cells into brown adipocytes were performed as described in Methods without (FIG. 17A) or with (FIG. 17B) rosiglitazone (1 μM) added to the adipogenic medium (MDM) from day 0. […] Alexafluor 488 goat anti-rabbit antibody was used to quantify relative UCP1 levels (green). […] UCP1 signal intensity was measured using the GE Developer Toolbox software on images collected on the InCell 1000 Automated High Content Imager. […]
Culturing and differentiation of CD31− cells into brown adipocytes were performed using adipogenic differentiation medium lacking (Minimal Differentiation Medium, MDM) or containing 1 μM rosiglitazone (Reference Differentiation Medium, RDM). […] As a readout, total intensity of UCP1 signal within the cell was used, normalized to cell number.

In test [4] the test system is UCP1 mRNA in human skeletal muscle (vastus lateralis). As to the kind of experiment: UCP1 mRNA expression in skeletal muscle biopsies before and after rosiglitazone treatment in vivo. As to the method: Since the PPARγ agonist rosiglitazone was a strong inducer of UCP1 mRNA expression in muscle CD34+ cells in culture, the effect of this compound in vivo in humans was investigated. Vastus lateralis muscle biopsies from 7 obese patients with type 2 diabetes mellitus treated for the management of their metabolic syndrome with rosiglitazone were used. The biopsies were obtained before and after 8 weeks of treatment with rosiglitazone (2×4 mg per day). […] In that study rosiglitazone, concomitantly with the improvement in insulin sensitivity, increased the level of expression of UCP1 in muscle by about 1.6-fold. […] The results are the means±s.e.m. of arbitrary values normalized using the corresponding cyclophilin A values (n=7, *p<0.05 vs. control).
In FIG. 5, showing UCP1 mRNA levels in skeletal muscle biopsies from a patient group (n=7), “control” corresponds to levels before treatment, and “Rosi” corresponds to levels after treatment (8 weeks) with rosiglitazone. Being a longitudinal study the effect of rosiglitazone on UCP1 levels in each individual (comparison of individual values for the “control”-before and “Rosi”-after conditions) were determined. Starting with 25 ng cDNA (produced by reverse transcription of RNA) the threshold of detection (Ct) during real-time PCR was about 22 for UCP1 and about 18 for cyclophilin. The effect of rosiglitazone (UCP1 level at end of treatment vs. before treatment) were as follows: […]
Quantitative real-time PCR was performed using ABI rapid thermal cycler system and a SYBR Green PCR master mix (Applied Biosystems, Foster City, Calif.), or an ABI 7300 Real-time PCR instrument, a TaqMan Gene Expression Master Mix (Applied Biosystems #4369016) and TaqMan Gene Expression Pre-formulated Assays for human uncoupling protein-1 (GenBank NM_021833) (Applied Biosystems Assay ID Hs01084772_m1, TaqMan Gene Expression Assay part #4351372) and for human peptidylprolyl isomerase A “cyclophilin A” (GenBank NM_021130) (Applied Biosystems Assay ID Hs99999904_m1, TaqMan® Gene Expression Assay part #4448485). Cyclophilin A was used as a control to account for any variations due to the efficiency of the reverse transcription. The upstream and downstream oligonucleotide primers were chosen on both sides of an intron to prevent amplification of contaminating genomic DNA.
Primers used for real time quantitative PCR in human skeletal muscle are as follows:
Data are expressed as means±s.e.m. Significances were evaluated using the unpaired Student's t-test. A paired Student's t-test was used to determine the effects of rosiglitazone on human skeletal muscle UCP1 mRNA levels. Significances were set at p<0.05.

The subject of test [5] is CD56+ cells. Description: Differentiation of CD56+ cells in adipogenic medium. Format: cell-based, human. Particulars: MDM with or without rosiglitazone or BMP7. The method, then: (§1) With the aim of further purifying the CD34+ cells in search for the purest physiological brown adipocyte progenitors, stroma-vascular cells were purified from two independent samples of human fetal skeletal muscle (18-19 weeks of gestation). Following the CD45, CD56, CD34, and CD146 sorting described above, an additional step of FACS sorting using an anti-CD31 antibody was performed. The cells were sorted based on the presence of the mature endothelial cell surface marker CD31 (CD31+) or absence of that marker (CD31-). It was hypothesized that the CD31− subpopulation may be a purer progenitor of human brown adipocytes. The CD31− cell fraction amounted to about 80% of the CD34+ cell population derived from skeletal muscle. For purpose of simplicity, CD34+/CD45−/CD56−/CD146−/CD31− are called “CD31−” cells [EMC309 (CD31−) and EMC314 (CD31−)]. CD34+/CD45−/CD56−/CD146−/CD31+ are called “CD31+” cells [EMC309 (CD31+) and EMC314 (CD31+)]. In addition, the myogenic progenitor cells expressing the cell surface antigen CD56 (CD56+) were also sorted and cultured: CD34+/CD45−/CD56+ (from EMC314) and CD45−/CD56+ (from EMC309) are called “CD56+” cells [EMC309 (CD56+) and EMC314 (CD56+)].
(§2) The sorted cells (CD31−, CD31+, and CD56+ cell populations) were grown under the same conditions as described above, i.e., 2-4 days in proliferation medium (EGM2) and 10-16 days in adipogenic differentiation medium. […]

Test [6] relates to CD31- cells (CD34+/CD45-/CD56-/CD146-/CD31-) from human fetal skeletal muscle. Description: Differentiation of CD31- cells into adipocyte-like multilocular cells / brown adipocytes. Format: cell-based. As to the method:
as §1, §2

For test [7], the system named is CD31+ cells (CD34+/CD45-/CD56-/CD146-/CD31+). Description: Differentiation of CD31+ cells in adipogenic medium. Format: cell-based, human. Particulars: MDM with or without rosiglitazone or BMP7. The method, then:
as §1, §2

Here are results for two molecules from US11299710B2, “Brown adipocyte progenitors in human skeletal muscle” (ENERGESIS PHARMACEUTICALS, INC., priority 2011, dated 2022).

“And” between values parts separate entries of the source, which are not always exact repeats. Equal values may be shown once.

Take `CN(CCOc1ccc(CC2SC(=O)NC2=O)cc1)c1ccccn1` (centres unmarked) [rosiglitazone]: the “increase of UCP1 expression compared to EGM2 control condition” value in test [1] is listed as 507-553 fold. Moreover, the “stimulation of UCP1 mRNA expression” value in test [2] (expanded cells (P3), vs untreated control) came out at 8 fold. Further, in test [2] (primary culture cells (PC)), the “effect on UCP1 mRNA expression” value is listed as “no effect”. In test [3], the “UCP1 intensity per nucleus” value was 105,542. Also, the “increase of level of UCP1 protein” value in test [3] (vs without rosiglitazone) was determined as 7 fold. In addition, the “increase of level of expression of UCP1 in muscle” value in test [4] (7 obese type 2 diabetes patients, 8 weeks, 2×4 mg per day, group mean, after vs before treatment) was “about 1.6 fold”. Also, the “increase of UCP1 level at end of treatment vs. before treatment” value in test [4] (individual patients 1-7, 8 weeks rosiglitazone 2×4 mg per day) is 180% and 8% and 310% and 10% and 50% and 80%. Also, in test [4] (individual patients 1-7, after 8 weeks rosiglitazone), the “UCP1 mRNA level after treatment, normalized to cyclophilin A” value is 730 arbitrary units and 600 arbitrary units and 556 arbitrary units and 142 arbitrary units and 652 arbitrary units and 453 arbitrary units and 677 arbitrary units. For the same molecule, the “UCP1 level at end of treatment relative to control (before treatment)” value in test [4] (individual patients 1-7, control = 100%) was 280% and 108% and 410% and 110% and 150% and 100% and 180%.

B1: BMP7: recombinant human bone morphogenic protein-7 from R&D Systems (protein, UniProt P18075 293-431, looked up)
Bone morphogenetic protein 7: STGSKQRSQNRSKTPKNQEALRMANVAENSSSDQRQACKKHELYVSFRDLGWQDWIIAPEGYAAYYCEGECAFPLNSYMNATNHAIVQTLVHFINPETVPKPCCAPTQLNAISVLYFDDSSNVILKKYRNMVVRACGCH
Take B1: in test [1], the “increase of UCP1 expression compared to EGM2 control condition” value is reported as 78-127 fold. For the same molecule, the “differentiation of CD56+ cells into adipocyte-like multilocular cells” value in test [5] is “did not differentiate”. Further, in test [6] (6 nM, before induction of differentiation (day -3 or -2 to day 0)), the “differentiation of CD31- cells into brown adipocytes” value was “strongly promoted”. In addition, the “fraction of CD31- cells differentiated into adipocyte-like multilocular cells” value in test [6] (MDM containing the compound) is on record as “virtually all”. Besides, the “differentiation of CD31+ cells into adipocyte-like multilocular cells” value in test [7] is “did not differentiate”.
